“Also recorded” adds a separate entry of the source.
Legend:
STZ-treated mice = assay: Intraperitoneal glucose tolerance test 50 days post-treatment; type: in vivo, mouse
Experimental: In this experiment, four STZ-treated mice were treated with 12,000 μg/kg/day of IGF-2 (four injections of 3000 μg/kg/day) 5 days and two mice were treated for 10 days. A glucose tolerance test was performed 50 days post-treatment with IGF-2 by challenging the treated mice with a 2 grams/kg dose of glucose and determining the blood glucose level over a 180 minute time course. The blood glucose curves of the treated mice were compared to results for a saline control, and normal (nondiabetic) obese and normal (nondiabetic) lean mice based on published literature (Jorgensen et al., J. Am Assoc. Lab. Animal Sci 2017 56(1): 95-97).

C57BL/6 STZ mice = assay: Fasting blood glucose in STZ-induced diabetic C57BL/6 mice treated with IGF-2; type: in vivo, mouse; settings: for fasting glucose levels during the ten-day course of treatment: day 0 and ten more times within ten days
Experimental: C57BL/6 mice male 8-10 weeks old, housed under conventional conditions and allowed laboratory chow and water ad libitum, were used in the experiments described below in Examples 3-4. Within each experiment, animals were matched by age and weight (20-24 g) and randomly divided into groups to receive different treatments. Diabetes was induced by one or more doses of streptozotocin (STZ).
Briefly, animals received intraperitoneally (i.p.) 100 mg/kg (b.w.) STZ (Cayman Chemical, Ann Arbor, MI) dissolved in citrate buffer on pH 4.5 (this procedure was repeated if needed). Clinical diabetes was defined by hyperglycemia (blood glucose levels >300 mg/dl in fasted animals). Fasting blood glucose levels were measured three times per week and samples were taken from the tail tip after starvation for 6 hours throughout the experiment.
Fasting blood glucose levels (mg/dL) were determined using the Accu-Chek Performa glucometer (Roche Diagnostics, Mannheim, Germany). After approximately two weeks of stable hyperglycemia, C57BL/6 STZ mice received exogenous injections of recombinant human IGF-2 (0.3-12 mg/kg/day injection) intraperitoneally for 5-10 consecutive days. During post-treatment follow-up period and upon termination, mice were tested for: fasting glucose, body weight, glucose tolerance test (IPGTT), serum C-peptide level, serum insulin level, and full blood and histological analysis (CBC, Chemistry, Insulin IHC and H&E).

NOD mice [1] = assay: Serum insulin / insulin secretion in NOD mice treated with IGF-2; type: in vivo, mouse
Experimental: FIG. 30B depicts the levels of serum insulin in NOD mice measured two weeks after a 66 day course of treatment using IGF-2. Mice that were treated with 3000 μg/kg/day of IGF-2 had serum insulin levels that were about 4-fold higher than the control mice.
(§1) In one exemplary experiment, NOD mice were treated with a 3000 μg/kg daily doses of IGF-2 for 150 days. ⅘ of the treated mice maintained normoglycemia compared to ¼ of the control mice. In another exemplary experiment, NOD mice were treated with a 3000 μg/kg daily dose of IGF-2 for 75 days with follow-up glucose measurements taken for an additional 90 days (during which IGF-2 was not administered). ⅝ of the treated mice maintained normoglycemia compared to 2/11 of the control mice.

db/db mice = assay: Histopathology and immunohistochemical staining of pancreas islet cells in db/db mice; type: in vivo, mouse; settings: sacrificed 70 days after the end of treatment
Experimental: FIG. 27 provides results of histopathology and immunohistochemical studies showing the number of pancreas islet cells that test positive for insulin (left panel) and glucagon (right panel) in db/db mice. In this experiment, one group of db/db mice was injected with 12000 μg/kg of IGF-2 on each of 70 consecutive days, a second group of db/db mice was injected with saline, and a third group of db/db mice was a naïve control group. The mice were sacrificed for pathology 70 days after the end of the initial 70 day treatment.
In this experiment, one group of db/db mice (labeled X4) was injected with 12000 μg/kg of IGF-2 on each of 70 consecutive days, a second group of db/db mice (labeled X1) was injected with 3000 μg/kg of IGF-2 on each of 70 consecutive days, and a third group of db/db mice (labeled control) was injected with saline. The mice were sacrificed for pathology 70 days after the end of the initial 70 day treatment. […] The control panels show a positive stain for insulin, which increases in intensity in the 3000 μg/kg/day mice, and increases again in intensity in the 12,000 μg/kg/day mice.

β-MIN6 cells = assay: Insulin secretion of β-MIN6 cells following glucose induction; type: cell-based, mouse; settings: 1 week treatment; IGF-2 5 nM, 20 nM, 80 nM
Text: β-MIN6 cells serve as an in vitro model of mouse pancreatic islets. β-MIN6 cells were used as an in vitro model to measure the effects of treatment with IGF-2.

NOD mice [2] = assay: Incidence of spontaneous autoimmune type 1 diabetes / normoglycemia in NOD mice; type: in vivo, mouse
Experimental: Non-Obese Diabetic (NOD) mice are a polygenic model for spontaneous autoimmune type 1 diabetes (T1D). NOD mice have an elevated risk for development of autoimmune type 1 diabetes. Thus, NOD mice were used to determine whether treatment IGF-2 reduces spontaneous development of type 1 diabetes.
In this experiment, one group of NOD mice (right panel) was injected with 3000 μg/kg of IGF-2 on each of 76 consecutive days, and a second group of NOD mice (left panel) was injected with saline. […] More specifically, at the end of the 76 days of treatment, only two of the treated mice had developed high glucose levels.
FIG. 30A depicts how many NOD mice have developed autoimmune type I diabetes during an initial 66 days of treatment with IGF-2, and at various intervals post-treatment. In this experiment, one group of NOD mice was injected with 3000 μg/kg of IGF-2 on each of 66 consecutive days, and a second group of NOD mice was injected with saline.
as §1

**Q.** For insulin-like growth factor 2 [IGF-2], which “number of IGF-2-treated mice permanently cured” value (STZ-treated mice; 12,000 μg/kg/day, four mice 5 days and two mice 10 days) is on record?
**A.** Five

**Q.** What about the “glucose levels in the glucose tolerance test” value (STZ-treated mice; 2 grams/kg glucose, 50 days post-treatment, Mouse O1, not permanently cured) of the same substance?
**A.** higher than the normal obese mouse

**Q.** What about the “response to the glucose tolerance test (blood glucose over 180 minutes)” value (STZ-treated mice; 2 grams/kg glucose, 50 days post-treatment, the five permanently cured mice) of the same substance?
**A.** fell between the glucose tolerance results from the literature for non-diabetic obese mice and non-diabetic lean mice

**Q.** And the hypoglycemia (C57BL/6 STZ mice; 3000 μg/kg/day, also when the dose was increased to 12,000 μg/kg/day)?
**A.** Hypoglycemia was never observed

**Q.** And the hypoglycemia (C57BL/6 STZ mice; 10:1 ratio of dosages, between 3000 μg and 300 μg)?
**A.** did not cause hypoglycemia

**Q.** What about the “fasting glucose levels during and shortly after the course of treatment” value (C57BL/6 STZ mice; IGF-2 300 μg/kg/day, initial dose and ten additional doses over ten days, STZ mice B5, B6, B3, B4) of the same substance?
**A.** did not return to a normal range; also recorded: temporary drop in fasting glucose levels from days 10-25

**Q.** What about the “long-term results on fasting glucose levels” value (C57BL/6 STZ mice; IGF-2 300 μg/kg/day, STZ mice B5, B3, B4) of the same substance?
**A.** long-term results were not observed

**Q.** What about the “fasting glucose levels during the ten-day course of treatment” value (C57BL/6 STZ mice; IGF-2 800 μg/kg/day, STZ mice A8, A6, F3, F4) of the same substance?
**A.** returned to a normal range

**Q.** And the “blood glucose levels remaining, mice with full or almost full resolution” value (C57BL/6 STZ mice; IGF-2 800 μg/kg/day, half the mice (FIGS. 5A and 5B))?
**A.** ~200 mg/dL

**Q.** And the “fasting glucose levels after the course of treatment (long term)” value (C57BL/6 STZ mice; IGF-2 800 μg/kg/day, mice A8 and A6)?
**A.** remained in the normal range until the end of the experiment; also recorded: remained in the normal range until STZ was provided again

**Q.** What about the “fasting glucose levels after the ten day course of injections ended” value (C57BL/6 STZ mice; IGF-2 800 μg/kg/day, mice F3 and F4) of the same substance?
**A.** around 400

**Q.** And the “blood glucose levels remaining, mice with partial improvement” value (C57BL/6 STZ mice; IGF-2 800 μg/kg/day, the remaining mice (FIGS. 6A and 6B))?
**A.** ~400 mg/dL

**Q.** What about the “fasting glucose levels during the ten-day course of treatment” value (C57BL/6 STZ mice; IGF-2 3000 μg/kg/day, STZ mice C1, C8, C6, F1) of the same substance?
**A.** returned to a normal range

**Q.** And the “long-term improvements in blood glucose levels” value (C57BL/6 STZ mice; IGF-2 12,000 μg/kg daily on each of 12 consecutive days)?
**A.** long-term improvements in blood glucose levels were obtained

**Q.** What about the “long-term improvements in blood glucose levels” value (C57BL/6 STZ mice; IGF-2 12,000 μg/kg daily on only 5 consecutive days) of the same substance?
**A.** long-term improvements in blood glucose levels were not obtained

**Q.** And the “time to reduce the blood glucose level to a normal range” value (C57BL/6 STZ mice; daily intraperitoneal 3000 μg/kg/day, averaged over four mice)?
**A.** 3 to 5 days

**Q.** And the “blood glucose level reached (normal range), averaged over four mice” value (C57BL/6 STZ mice; daily intraperitoneal 3000 μg/kg/day, maintained for the remainder of the 10 day window)?
**A.** 100 to 200 mg/dL

**Q.** What about the “time post treatment for which normal blood glucose levels are maintained” value (C57BL/6 STZ mice; four mice, single 10 day course at 3000 μg/kg/day, long term follow up) of the same substance?
**A.** at least 300 days

**Q.** And the “serum insulin levels relative to the control mice” value (NOD mice [1]; 3000 μg/kg/day, two weeks after a 66 day course of treatment)?
**A.** about 4 fold

**Q.** What about the “average insulin secretion of the treated mice” value (NOD mice [1]; both NOD experiments of Example 14, 3000 μg/kg daily) of the same substance?
**A.** five times greater than the control mice

**Q.** And the “increase in the number of insulin-positive cells” value (db/db mice; 12000 μg/kg on each of 70 consecutive days)?
**A.** more than 50%

**Q.** And the “insulin positive cells (immunohistochemical staining)” value (db/db mice; 3000 and 12000 μg/kg on each of 70 consecutive days vs saline)?
**A.** increase in insulin positive cells in a dose-dependent manner

**Q.** What about the “insulin secretion following glucose induction” value (β-MIN6 cells) of the same substance?
**A.** increases insulin secretion (following glucose induction) in a dose-dependent manner

**Q.** And the “fraction of the treated mice that maintained normoglycemia” value (NOD mice [2]; 3000 μg/kg daily dose for 75 days, follow-up for an additional 90 days, control 2/11)?
**A.** ⅝

**Q.** And the “fraction of the treated mice that maintained normoglycemia” value (NOD mice [2]; 3000 μg/kg daily doses for 150 days, control ¼)?
**A.** ⅘

**Q.** And the “incidence of spontaneous autoimmune type 1 diabetes” value (NOD mice [2]; 3000 μg/kg on each of 66 consecutive days and post-treatment, vs saline control)?
**A.** significantly reduced

**Q.** What about the “incidence of spontaneous autoimmune attack” value (NOD mice [2]; 3000 μg/kg on each of 76 consecutive days vs saline) of the same substance?
**A.** reduced dramatically

**Q.** And the “number of treated mice that had developed high glucose levels” value (NOD mice [2]; 3000 μg/kg, at the end of the 76 days of treatment)?
**A.** two

From US12447198B2, “Peptides and fragments for treating diabetes and associated metabolic diseases” (Betavive Ltd., priority 2021, dated 2025)
